These are literature values, as cited in US6583130B1, “C13-substituted estra-1,3,5,(10)-trien-3-yl sulfamates, methods of preparing same, and pharmaceutical compositions containing these compounds” (Schering AG, priority 1999, dated 2003).

Series [1] addresses T1, sulfatase (Homo sapiens, UniProt P08842).
T1 sequence (P08842 22-583): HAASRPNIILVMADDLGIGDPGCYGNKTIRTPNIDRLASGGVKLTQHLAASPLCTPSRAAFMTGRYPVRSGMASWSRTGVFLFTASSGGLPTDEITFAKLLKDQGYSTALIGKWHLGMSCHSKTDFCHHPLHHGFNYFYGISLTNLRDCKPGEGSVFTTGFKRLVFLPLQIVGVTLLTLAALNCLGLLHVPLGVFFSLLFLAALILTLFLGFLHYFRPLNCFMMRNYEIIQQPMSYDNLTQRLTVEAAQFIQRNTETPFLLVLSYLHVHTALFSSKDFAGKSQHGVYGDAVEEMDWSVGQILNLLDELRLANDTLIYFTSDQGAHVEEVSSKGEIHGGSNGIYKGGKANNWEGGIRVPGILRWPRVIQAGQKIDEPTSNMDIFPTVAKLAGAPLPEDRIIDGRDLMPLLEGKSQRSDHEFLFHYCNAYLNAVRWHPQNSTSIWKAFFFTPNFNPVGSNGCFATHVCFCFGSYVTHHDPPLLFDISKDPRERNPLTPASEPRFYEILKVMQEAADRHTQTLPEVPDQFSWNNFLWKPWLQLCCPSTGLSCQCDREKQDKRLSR
As to conditions: as described in the cited literature.

In series [2] the test system is uterine growth. As to conditions: ovariectomized rats; Purohit et al. 1998.
The subject of series [3] is estrogenic effect. Conditions: as described in the cited literature (Elger et al. 1995; WO 97/14712).

On to `COc1cc2c(cc1OS(N)(=O)=O)CC[C@@H]1[C@@H]2CC[C@]2(C)C(=O)CC[C@@H]12` [2-methoxyestrone 3-O-sulfamate], for which, in series [1], the sulfatase inhibition result is “potent sulfatase inhibitor”. Moreover, the “estrogenic effect on uterine growth” value in series [2] is given as “does not exhibit any estrogenic effect”.
Consider `CC(=O)NS(=O)(=O)Oc1ccc2c(c1)CC[C@@H]1[C@@H]2CC[C@]2(C)C(=O)CC[C@@H]12` [N-acetylestrone 3-O-sulfamate], for which, in series [1], the sulfatase inhibition result is “sulfatase inhibitor”. Further, the estrogenic effect result in series [3] is reported as “strong estrogenic effect”.
In the case of `C[C@]12CC[C@@H]3c4ccc(OS(N)(=O)=O)cc4CC[C@H]3[C@@H]1CCC2=O` [estrone 3-O-sulfamate], in series [1], the sulfatase inhibition result is given as “strong sulfatase inhibitor”. The estrogenic effect result in series [3] was “strong estrogenic effect”.
